# pIC50: −log10 of the molar value.
# Legend:
# [1] = tested on: RAW264.7; assay: Inhibition of LPS-induced TNFalpha production in mouse RAW264.7 cells preincubated for 2 hrs followed by LPS treatment for 24 hrs by RT-qPCR analysis; format: functional, cell-based
# [2] = Metabolic stability in mouse liver microsomes assessed as intrinsic clearance; format: ADME, Microsome
# [3] = Cmax in 12 hr starved C57 mouse at 5 mg/kg, iv measured for 0.083 to 24 hrs post-dose by LC-MS-MS analysis; format: ADME, organism-based; set-up: time upper 24 hrs, time lower 0.083 hrs, dose 5 mg/kg, route iv; details: in vivo
# [4] = Apparent volume of distribution in 12 hr starved C57 mouse at 5 mg/kg, iv measured for 0.083 to 24 hrs post-dose by LC-MS-MS analysis; format: ADME, organism-based; details: in vivo, time 0.083-24 hrs, read-out: Vz
# [5] = MRT (0 to infinity) in 12 hr starved C57 mouse at 30 mg/kg, po measured for 0.083 to 24 hrs post-dose by LC-MS-MS analysis; format: ADME, organism-based; details: in vivo, time 0.083-24 hrs
# [6] = Apparent volume of distribution in 12 hr starved C57 mouse at 30 mg/kg, po measured for 0.083 to 24 hrs post-dose by LC-MS-MS analysis; format: ADME, organism-based; details: in vivo, time 0.083-24 hrs
# [7] = Apparent clearance during terminal phase in 12 hr starved C57 mouse at 30 mg/kg, po measured for 0.083 to 24 hrs post-dose by LC-MS-MS analysis; format: ADME, organism-based; details: in vivo, time 0.083-24 hrs
# [8] = tested on: Mus musculus; assay: Anti-ulcerative colitis activity in DSS-induced C57BL/6 mouse ulcerative colitis model assessed as histopathological score recovery ratio at 1 mg/kg, IG via gavage measured after 7 days by H and E staining method relative to control; format: functional; details: time 7 day
# [9] = tested on: Mus musculus; assay: Antiinflammatory activity against DSS-induced C57BL/6 mouse model of acute ulcerative colitis assessed as inhibition ratio of TNF-alpha protein expression at 3 mg/kg, IG via gavage measured after 7 days by ELISA relative to control; format: functional; set-up: scale not given: the % may be the effect or the level left; details: time 7 day
# [10] = tested on: Mus musculus; assay: Antiinflammatory activity against DSS-induced C57BL/6 mouse model of acute ulcerative colitis assessed as inhibition ratio of IL-1beta protein expression at 3 mg/kg, IG via gavage measured after 7 days by ELISA relative to control; format: functional; set-up: scale not given: the % may be the effect or the level left; details: time 7 day
# [11] = tested on: Mus musculus; assay: Antiinflammatory activity against DSS-induced C57BL/6 mouse model of acute ulcerative colitis assessed as inhibition ratio of IL-6 protein expression at 3 mg/kg, IG via gavage measured after 7 days by ELISA relative to control; format: functional; set-up: scale not given: the % may be the effect or the level left; details: time 7 day
# [12] = tested on: Mus musculus; assay: Antiinflammatory activity against DSS-induced C57BL/6 mouse model of acute ulcerative colitis assessed as reduction in serum TNF-alpha levels administered intragastrically via gavage measured after 7 days by ELISA; format: functional, organism-based; details: dose 1-10 mg/kg, route ig, time 7.0 day, DDE = dose-dependent effect
# [13] = tested on: Mus musculus; assay: Antiinflammatory activity against DSS-induced C57BL/6 mouse model of acute ulcerative colitis assessed as inhibition ratio of IL-23 mRNA expression in colon tissue at 1 mg/kg, IG via gavage measured after 7 days by RT-qPCR analysis relative to control; format: functional; set-up: scale not given: the % may be the effect or the level left; details: time 7 day
# [14] = tested on: Mus musculus; assay: Anti-ulcerative colitis activity in IL-10-/- C57BL/6 mouse model of ulcerative colitis assessed as body weight recovery ratio at 10 mg/kg, IG via gavage for 8 weeks and measured everyday relative to control; format: functional
# [15] = tested on: Mus musculus; assay: Antiinflammatory activity against IL-10-/- C57BL/6 mouse model of ulcerative colitis assessed as inhibition ratio of TNF-alpha protein expression at 3 mg/kg, IG via gavage and measured after 8 weeks by ELISA relative to control; format: functional; set-up: scale not given: the % may be the effect or the level left
# [16] = tested on: Mus musculus; assay: Antiinflammatory activity against IL-10-/- C57BL/6 mouse model of ulcerative colitis assessed as inhibition ratio of IL-1beta protein expression at 1 mg/kg, IG via gavage and measured after 8 weeks by ELISA relative to control; format: functional; set-up: scale not given: the % may be the effect or the level left
# [17] = tested on: Mus musculus; assay: Antiinflammatory activity against IL-10-/- C57BL/6 mouse model of ulcerative colitis assessed as inhibition ratio of IL-1beta protein expression at 3 mg/kg, IG via gavage and measured after 8 weeks by ELISA relative to control; format: functional; set-up: scale not given: the % may be the effect or the level left
# [18] = tested on: Mus musculus; assay: Antiinflammatory activity against IL-10-/- C57BL/6 mouse model of ulcerative colitis assessed as inhibition ratio of IL-23 protein expression at 3 mg/kg, IG via gavage and measured after 8 weeks by ELISA relative to control; format: functional; set-up: scale not given: the % may be the effect or the level left
# [19] = tested on: Mus musculus; assay: Antiinflammatory activity against IL-10-/- C57BL/6 mouse model of ulcerative colitis assessed as inhibition ratio of TNF-alpha mRNA expression in colon tissue at 3 mg/kg, IG via gavage and measured after 8 weeks by RT-qPCR analysis relative to control; format: functional; set-up: scale not given: the % may be the effect or the level left
# [20] = tested on: Mus musculus; assay: Antiinflammatory activity against IL-10-/- C57BL/6 mouse model of ulcerative colitis assessed as inhibition ratio of TNF-alpha mRNA expression in colon tissue at 10 mg/kg, IG via gavage and measured after 8 weeks by RT-qPCR analysis relative to control; format: functional; set-up: scale not given: the % may be the effect or the level left
# [21] = tested on: Mus musculus; assay: Antiinflammatory activity against IL-10-/- C57BL/6 mouse model of ulcerative colitis assessed as inhibition ratio of IL-1beta mRNA expression in colon tissue at 1 mg/kg, IG via gavage and measured after 8 weeks by RT-qPCR analysis relative to control; format: functional; set-up: scale not given: the % may be the effect or the level left
# [22] = tested on: Mus musculus; assay: Antiinflammatory activity against IL-10-/- C57BL/6 mouse model of ulcerative colitis assessed as inhibition ratio of IL-6 mRNA expression in colon tissue at 1 mg/kg, IG via gavage and measured after 8 weeks by RT-qPCR analysis relative to control; format: functional; set-up: scale not given: the % may be the effect or the level left
# [23] = tested on: RAW264.7; assay: Inhibition of MKK3-p38-elF4E signaling pathway in mouse RAW264.7 cells assessed as reduction in LPS-induced Mnk1 phosphorylation treated for 1.5 hrs followed by LPS treatment for 1 hr by Western blot analysis; format: cell-based; details: dose 3.125-12.5 µmol/L, time 2.5 hrs, DDE = dose-dependent effect
# [24] = tested on: RAW264.7; assay: Inhibition of MKK3-p38-elF4E signaling pathway in mouse RAW264.7 cells assessed as reduction in LPS-induced MK2 phosphorylation treated for 1.5 hrs followed by LPS treatment for 1 hr by Western blot analysis; format: cell-based; details: dose 3.125-12.5 µmol/L, time 2.5 hrs, DDE = dose-dependent effect
# [25] = tested on: Mus musculus; assay: Inhibition of MKK3-p38 MAPK-elF4E signaling pathway in C57BL/6 mouse model of acute ulcerative colitis assessed as decrease in DSS-induced Mnk1 phosphorylation in colon tissue administered intragastrically via gavage measured after 7 days by Western blot analysis; details: dose 1-50 mg/kg, time 7.0 day, DDE = dose-dependent effect
# [26] = tested on: Mus musculus; assay: Inhibition of MKK3-p38 MAPK-elF4E signaling pathway in C57BL/6 mouse model of acute ulcerative colitis assessed as decrease in DSS-induced elF4E phosphorylation in colon tissue administered intragastrically via gavage measured after 7 days by Western blot analysis; details: dose 1-50 mg/kg, time 7.0 day, DDE = dose-dependent effect
# [27] = tested on: Mus musculus; assay: Anti-ulcerative colitis activity against DSS-induced ulcerative colitis C57BL/6 mouse model assessed as reduction in DAI recovery score ratio at 10 mg/kg, IG via gavage administered for 7 days and measured everyday relative to control; format: functional; set-up: scale not given: the % may be the effect or the level left; details: time 7 day
# [28] = tested on: Mus musculus; assay: Anti-ulcerative colitis activity against DSS-induced ulcerative colitis C57BL/6 mouse model assessed as reduction in DAI recovery score ratio at 50 mg/kg, IG via gavage administered for 7 days and measured everyday relative to control; format: functional; set-up: scale not given: the % may be the effect or the level left; details: time 7 day
# [29] = tested on: Mus musculus; assay: Antiinflammatory activity against DSS-induced C57BL/6 mouse model of acute ulcerative colitis assessed as inhibition of IL-1beta mRNA expression in colon tissue administered intragastrically via gavage measured after 7 days by RT-qPCR analysis; format: functional, organism-based; details: route ig, time 7.0 day, DDE = dose-dependent effect
smiles,measurement,setting,value
COc1ccc([C@H]2CC(=O)c3cc(OC)cc(OC)c32)cc1,pIC50,[1],6.24
same,CLH,[2],1730.2 mL/min/g
same,Cmax,[3],2920 ng/mL
same,Vd,[4],7.76 L/kg
same,MRT inf,[5],12.5 h
same,Vz,[6],3.68 L/kg
same,CLz/F,[7],4.83 mL/min/kg
same,Activity,[8],25%
same,Activity,[9],55.9%
same,Activity,[10],60.8%
same,Activity,[11],53.5%
same,Activity,[12],Dde
same,Activity,[13],71.7%
same,Activity,[14],19.4%
same,Activity,[15],60.3%
same,Activity,[16],40.1%
same,Activity,[17],50%
same,Activity,[18],58.2%
same,Activity,[19],69.5%
same,Activity,[20],68.5%
same,Activity,[21],22.8%
same,Activity,[22],26.3%
same,inhibition,[23],Dde
same,inhibition,[24],Dde
same,inhibition,[25],Dde
same,inhibition,[26],Dde
same,Activity,[27],45%
same,Activity,[28],22.7%
same,Activity,[29],Dde
